Experimental data from patent US10092648B2, “Selective glucagon-like-peptide-2 (GLP-2) analogues” (Zealand Pharma A/S, priority 2006, dated 2018).
Like-named read-outs stand apart in the source and are kept apart here. Blank lines part the entries; values can stand above or below the molecule they belong to.

What was measured:
hGLP-2 receptor = target: T1, hGLP-2 receptor (Homo sapiens, UniProt O95838); assay: In vitro screening for agonism on the GLP-2 receptor recombinantly expressed in BHK-21 cells (CRE-luciferase reporter); type: cell-based
T1 construct: expressed in transfected cells; host or cells: BHK-21 (C13) cells, transient transfection with Lipofectamine 2000
T1 sequence (O95838 1-553): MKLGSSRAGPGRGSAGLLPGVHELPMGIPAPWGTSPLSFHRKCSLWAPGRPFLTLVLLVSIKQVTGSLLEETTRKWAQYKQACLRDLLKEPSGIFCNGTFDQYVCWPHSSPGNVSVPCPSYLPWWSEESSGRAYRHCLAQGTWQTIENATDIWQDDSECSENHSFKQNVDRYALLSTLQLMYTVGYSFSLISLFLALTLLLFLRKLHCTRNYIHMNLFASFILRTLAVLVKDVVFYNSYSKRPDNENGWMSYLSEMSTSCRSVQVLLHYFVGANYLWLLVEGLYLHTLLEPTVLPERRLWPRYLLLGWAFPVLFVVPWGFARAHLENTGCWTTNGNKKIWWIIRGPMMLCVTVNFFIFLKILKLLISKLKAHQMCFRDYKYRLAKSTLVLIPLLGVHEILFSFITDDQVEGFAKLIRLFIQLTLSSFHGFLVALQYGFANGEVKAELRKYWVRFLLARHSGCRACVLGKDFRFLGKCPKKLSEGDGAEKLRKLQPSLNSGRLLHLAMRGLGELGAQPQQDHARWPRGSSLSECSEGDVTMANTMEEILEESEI
Description: The screening was done using BHK21 cells transiently transfected with GLP-2 receptor and the CRE-luciferase reporter gene construct. Dose-response curves and EC50 values were determined using seven concentrations from 10 fM to 10 nM and triplicate points for each concentration. Control peptide was used on all test plates. BHK-21 cells are seeded in 10 cm TC-Petri dishes and grown to 70-80% confluency. Subsequently, medium is changed to serum-free transfection medium. DNA (7.5 μg hGLP-2 receptor vector and 7.5 μg CRE-luciferase vector) and Lipofectamine 2000 are diluted in OptiMEM, combined, and added to the cells after 20-30 min. Cells are incubated in the incubator at 37° C., 5% CO2 for 4 hr, trypsinized, and reseeded at 35,000 cells per well in 96-well plates. Cells are incubated overnight in full growth medium in order to allow expression of the transgenes. […] Baseline activity is controled with stimulation buffer alone. These solutions are pre-warmed to 37° C. for 30 min. Cells are rinsed with pre-warmed (37° C.) stimulation buffer, and incubated with 100 μl of the pre-warmed peptide dilutions and control for 5 hr at 37° C., 5% CO2. The LucLite enzyme substrate/lysis buffer is prepared shortly before the end of the incubation. 100 μl LucLite substrate are added to each well, and light emission is counted on a suitable counter (e.g. Wallac VictorII). EC50 values are derived from the raw data by fitting with a four parameter logistic equation (Microcal Origin 5.0 or GraphPad 4).

male C57BL mice [1] = assay: In vivo stimulation of intestinal growth, 800 nmol/kg (Example 10); set-up: key to Small intestine-colon sensitivity index: (SI/Colon) of compound divided by (SI/Colon) of reference GLP-2; details: 800 nmol/kg s.c. once daily for 3 days; for Sensitivity index Si/Colon / Sensitivity index Stomach/Co: relative to 1559; for Colon: colon mass relative to BW, % vs. [Gly2]GLP-2; for SI (% vs. [Gly2]GLP-2: small intestine mass relative to BW, [Gly2]GLP-2 = 100%
Source text: Individual groups (n=6-10) of mice were given 800 nmol/kg of each compound, s.c, once daily for three consecutive days. For comparison purposes other groups of animals were given either an equimolar dose of [[…]]GLP-2 (ZP1559) or vehicle (phosphate buffered saline, pH 7.4) in the same dosing regimen Twenty-four hours after the last dose of compound had been given the mice were sacrificed and the small intestine (from the pylorus to the cecum) and the colon (intestine distal to cecum) was emptied and weighed. To correct for slight difference in body weight (BW), the organ mass of the small intestine (SI) and colon were expressed relative to BW. The non-selective reference compound [[…]]GLP-2 has been reported to stimulate gastrointestinal growth in both esophagus, stomach, small intestine and colon and to evaluate differences in growth pattern induced by compounds, the small intestine-colon sensitivity index of compound X was calculated as: […]

male C57BL mice [2] = assay: In vivo stimulation of stomach growth, 200 nmol/kg (Example 12)
Description: The effects of the test compounds according to the invention were determined based on the ability of the peptides to selectively increase stomach mass, relative to vehicle control. The ability of the present compounds (ZP2395, ZP2396, ZP2400, ZP2412, ZP2394 and ZP2401) to selectively stimulate stomach mass, relative to colon mass was determined in male C57BL mice. Individual groups (n=6-10) of mice were given 200 nmol/kg of each compound, s.c, once daily for three consecutive days. For comparison purposes other groups of animals were given either an equimolar dose of [[…]]GLP-2 or vehicle (phosphate buffered saline, pH 7.4) in the same dosing regimen. Twenty-four hours after the last dose of compound had been given the mice were sacrificed and the stomach and small intestine (from the pylorus to the ileocaecal junction) emptied and weighed. To correct for slight difference in body weight (BW), the organ mass of the stomach is presented relative to BW. […] To evaluate the differential growth pattern induced by ZP compounds, compared to [[…]]GLP-2, on the stomach, the stomach-colon sensitivity index of compound X was calculated as: (Stomach/Colon)x/Stomach/(Colon)[[…]]GLP-2% Compounds with a stomach/colon sensitivity greater than or equal to 1.05 were considered relatively selective for the stomach.

male C57BL mice [3] = assay: In vivo stimulation of intestinal growth, 200 nmol/kg (Example 11)
Description: The ability of further compounds to selectively stimulate small intestinal mass, relative to colon mass was determined in male C57BL mice. A similar protocol was used to that described above in Example 10 except that 200 nmol/kg of each compound was administered per day. Thus, individual groups (n=6-10) of mice were given 200 nmol/kg of each compound, s.c, once daily for three consecutive days. Other groups of animals were given either an equimolar dose of [[…]]GLP-2 (reference compound) or vehicle (phosphate buffered saline, pH 7.4; negative controls) in the same dosing regimen. Twenty-four hours after the last dose of compound the mice were sacrificed and the stomach, small intestine and the colon emptied and weighed.

[4] = amino acid side-chain; defined by W. D. Stein 1967; cited from earlier work
[5] = BHK21 cells transiently transfected with GLP-2 receptor and CRE-luciferase, 10 fM to 10 nM, read-out: pEC50 (converted)

Molecule: H-HGEGSFSDELNTILESLAASDFISWLISTKITD-NH2 [ZP2270]
EC50 (hGLP-2 receptor): 0.0589 nM

EC50 (hGLP-2 receptor; [5]): 0.00316 nM
EC50 (hGLP-2 receptor; agonism on GLP-2 receptor in BHK-21 cells, read-out: IC 50 (FIG. 5)): 0.00355 nM
Molecule: H-HGEGSFSDELATILEALAAADFIAWLIATKITD-NH2 [ZP2264]
Colon-BW, compared to 1559 in % (male C57BL mice [1]): 109.5%
Preferential stimulation of epithelial growth in the small intestine (summary) (male C57BL mice [1]): preferentially stimulating epithelial growth in the small intestine
SI-BW, compared to 1559 in % (male C57BL mice [1]): 125.7%
Sto-BW, compared to 1559 in % (male C57BL mice [1]): 87%
Small intestine-colon sensitivity index (male C57BL mice [1]; (SI/Colon)x/(SI/Colon)[Gly2]GLP-2): 1.15 ± 0.03
Sensitivity index Si/Colon (male C57BL mice [1]): 1.15
Sensitivity index Stomach/Co (male C57BL mice [1]): 0.79
Colon (male C57BL mice [1]): 109 ± 3 %
SI (% vs. [Gly2]GLP-2 (male C57BL mice [1]): 126 ± 3 %
Sensitivity index Stomach/Co (male C57BL mice [2]; ratio Stomach-BW / Colon-BW): 0.79
Stomach-BW, compared to 1559 in % (male C57BL mice [2]; stomach weight relative to body weight, relative to ZP1559): 87%
Colon-BW, compared to 1559 in % (male C57BL mice [3]; colon weight relative to body weight, relative to ZP1559): 109.5%
Sensitivity index Si/Co (male C57BL mice [3]; ratio SI-BW / Colon-BW): 1.15
SI-BW, compared to 1559 in % (male C57BL mice [3]; small intestine weight relative to body weight, relative to ZP1559): 125.7%

Molecule: NC(=O)C[C@H](N)C(=O)O [Asn]
HBP for the individual amino acids [4]: 3

EC50 (hGLP-2 receptor; [5]): 0.0912 nM
Molecule: H-HGEGSFSDELKTILESLAAADFIEWLIQTKITD-NH2 [ZP2269]
Colon-BW, compared to 1559 in % (male C57BL mice [1]): 94.7%
Organ selectivity (FIG. 8, unselective compounds) (male C57BL mice [1]): unselective for the small intestine, colon or stomach
SI-BW, compared to 1559 in % (male C57BL mice [1]): 97.4%
Sto-BW, compared to 1559 in % (male C57BL mice [1]): 99.8%
Sensitivity index Si/Colon (male C57BL mice [1]): 1.03
Sensitivity index Stomach/Co (male C57BL mice [1]): 1.05
Colon (male C57BL mice [1]): 95 ± 3%
SI (% vs. [Gly2]GLP-2 (male C57BL mice [1]): 97 ± 2%

Molecule: CC(C)[C@H](N)C(=O)O [Val]
HBP for the individual amino acids [4]: 0

Molecule: N[C@@H](Cc1ccc(O)cc1)C(=O)O [Tyr]
HBP for the individual amino acids [4]: 2

Molecule: NC(=O)CC[C@H](N)C(=O)O [Gln]
HBP for the individual amino acids [4]: 3

Molecule: CSCC[C@H](N)C(=O)O [Met]
HBP for the individual amino acids [4]: 0

EC50 (hGLP-2 receptor; [5]): 0.0145 nM
Molecule: H-HGEGSFSDELSTILESLAASDFISWLISTKITD-NH2 [ZP2263]

Molecule: CC(C)C[C@H](N)C(=O)O [Leu]
HBP for the individual amino acids [4]: 0

Molecule: N[C@@H](Cc1c[nH]c2ccccc12)C(=O)O [Trp]
HBP for the individual amino acids [4]: 1

Molecule: N[C@@H](CC(=O)O)C(=O)O [Asp]
HBP for the individual amino acids [4]: 3

Molecule: O=C(O)[C@@H]1CCCN1 [Pro]
HBP for the individual amino acids [4]: 0

Molecule: N=C(N)NCCC[C@H](N)C(=O)O [Arg]
HBP for the individual amino acids [4]: 3

Molecule: N[C@@H](CCC(=O)O)C(=O)O [Glu]
HBP for the individual amino acids [4]: 3
